Measured values taken from ChEMBL document CHEMBL1136460, “Novel oxazolidinone-quinolone hybrid antimicrobials” (Bioorg Med Chem Lett, 2003).
Converted amounts (≈) assume the structure as drawn.

How the values were obtained:
Moraxella catarrhalis = assay: Antibacterial activity against Moraxella catarrhalis (MC1002); type: functional
Haemophilus influenzae = assay: Antibacterial activity against Haemophilus influenzae (HI1008); type: functional

- MIC (Moraxella catarrhalis): 0.03 µg/mL (≈ 0.0905 µM)
- MIC (Haemophilus influenzae): ≤ 0.06 µg/mL
Structure (SMILES): O=C(O)c1cn(C2CC2)c2cc(N3CCNCC3)c(F)cc2c1=O [CIPROFLOXACIN]
